This is an account of results in BindingDB's records for doi:10.1021/acs.jmedchem.5b01913 (Dalian University of Technology, 2016).

Broadly, the IC50 is the concentration that inhibits the measured activity by half.

The structures appear in SMILES notation.

The nature of assay [1]: Inhibition of Bcl2 in human DMS53 cells assessed as growth inhibition.
Assay [2] is described as follows: Inhibition of MDM2 in human HCT116 p53+/+ cells assessed as growth inhibition.

For `CC(C)Oc1ccc(C(=O)Nc2c(C(=O)O)nn(-c3ccc(Oc4ccccc4)cc3)c2-c2ccc(OC(C)C)cc2)cc1`, the half-inhibitory concentration (IC50) in assay [1] and in assay [2] was 5 µM in each case.
